Tests used:
Format in all cases: in vivo
[1] = tested on: creeping bentgrass (Agrostis palustris) putting green; test: Example 11, 2015 spring green-up (dormancy break) study: visual turfgrass biomass rating; conditions: urea only 0.2 lb. N/1000 ft^2, no bio-adjuvant; scale 1-5
Description: […] Objective biomass ratings were also performed based on an increase in dried weight of clippings. Clippings were collected over pre-measured plot areas in each treatment replicate using a Toro® brand walk-behind greens mower Model Greensmaster 8000 at the height described in this Example and dried in a drying oven (60° C.) for approximately 48 hours before being weighed.
(§1) Treatments were applied in the same manner and using the same equipment as previously described in Example 1. Turfgrass quality ratings and biomass ratings were performed as described in Example 1. Clippings were also collected as described in Example 1.
(§2) Treatments were applied once only to 2 ft ([…])×10.5 ft (3.2 m) plots of turfgrass on Apr. 1, 2015, while the turfgrass was still in winter dormancy (desiccated, brown, and thin). No additional applications were made to the study area. The study was rated visually for turfgrass biomass increase on Apr. 3, 2015 (2 days after treatment), on Apr. 11, 2015, and on Apr. 17, 2015. Turfgrass quality ratings were taken on Apr. 11, 2015 and Apr. 17, 2015. Turfgrass clippings were collected, dried, and weighed on Apr. 19, 2015 and May 2, 2015.

[2] = tested on: creeping bentgrass (Agrostis palustris) putting green; test: Example 11: dried clippings weights; conditions: urea only 0.2 lb. N/1000 ft^2, no bio-adjuvant
Description: Some biomass ratings were subjective visual estimations based on appearance of a combination of increased biomass and increased density on a 1 (least increase) to 9 (most increase) scale. Objective biomass ratings were also performed based on an increase in dried weight of clippings. Clippings were collected over pre-measured plot areas in each treatment replicate using a Toro® brand walk-behind greens mower Model Greensmaster 8000 at the height described in this Example and dried in a drying oven (60° C.) for approximately 48 hours before being weighed.
as §1, §2

[3] = tested on: creeping bentgrass (Agrostis palustris) putting green; test: Example 11: turfgrass quality rating; conditions: scale 1-9, urea 0.2 lb. N/1000 ft^2
Description: as §1, §2

With `NC(N)=O` [Urea only] the “Appearance (Biomass Increase) Apr. 3, 2015 Mean” value [1] was 1.5, the “Appearance (Biomass Increase) Apr. 11, 2015 Mean” value [1] was 2.5 and the “Appearance (Biomass Increase) Apr. 17, 2015 Mean” value [1] was 3. The “Appearance (Biomass Increase) Apr. 25, 2015 Mean” value [1] was 2.25, the “Clippings (Biomass) Dry wt (g) Apr. 19, 2015 Mean” value [2] was 4.623 g and the “Clippings (Biomass) Dry wt (g) May 2, 2015 Mean” value [2] was 6.175 g. The “Turfgrass Quality” value ([3]; Apr. 11, 2015) was 5.5, the “Turfgrass Quality” value ([3]; Apr. 17, 2015) was 5.5 and the “Turfgrass Quality” value ([3]; Apr. 25, 2015) was 5.75.

From patent US20170265465A1, “BIORATIONAL TREATMENT PRODUCTS AND METHODS OF USING SAME” (Board of Trustees of Michigan State University, priority 2014, published 2017)
